# Results taken from paper PMC12114195, “Synthesis, Experimental and Computational Evaluation of SERAAK1 as a 5-HT2A Receptor Ligand” (Molecules, 2025).
# Assays:
# CYP2D6 = CYP2D6 (Homo sapiens, UniProt P10635); assay: CYP2D6 P450 Glo luminescent assay; conditions: for inhibition at 10 µM: human
# Protocol: (§1) Luminescence-based CYP3A4 P450 Glo and CYP2D6 P450 Glo kits (Promega, Madison, WI, USA) were used to assess the impact of SERAAK1 on the activity of two distinct cytochrome P450 isoforms. These assays were performed according to the protocol of the manufacturer and in alignment with the previously described methods. Each assay was performed twice in triplicate. Luminescence signals were measured using a Spark microplate reader (Tecan, Männedorf, Zürich, Switzerland).
# CYP3A4 = target: T1, CYP3A4 (Homo sapiens, UniProt P08684); assay: CYP3A4 P450 Glo luminescent assay; format: in vitro ADME
# T1 construct: purchased Promega
# Protocol: Briefly, the effect of SERAAK1 on CYP3A was determined using a luminescent luciferase-based assay. A 10 µM concentration of the compound was tested in two experiments, each with three replicates.
# as §1
# HepG2 cells = assay: MTS cytotoxicity assay, HepG2; format: cell-based, human; conditions: 72 h
# Protocol: (§2) The cytotoxic properties of SERAAK1 were tested in two human cell lines, selected based on their relevance to the study objectives—the HepG2 and SH-SY5Y. Figure 7 and Figure 8 depict the results obtained in the cytotoxicity assays performed using the MTS.
# (§3) The cytotoxic effect of SERAAK1 was evaluated using the colorimetric MTS assay. The study was conducted on HepG2 and SH-SY5Y cell lines, following the same protocol. Cell lines were obtained from the American Type Culture Collection (Manassas, VA, USA) and maintained under standard conditions (5% CO2, 37 °C) in DMEM/F12 medium (#31330-038, ThermoFisher Scientific, Waltham, MA, USA), supplemented with 10% FBS (#A5256801, ThermoFisher Scientific) and Penicillin-Streptomycin (#15140-122, ThermoFisher Scientific) until used in the experiment. Cells at passage numbers between 15 and 25 were seeded in 96-well plates at the concentration of 5000 cells/well in 200 μL of medium and incubated for 24 h at 37 °C with 5% CO2. […] Subsequently, plates were incubated at 37 °C, and absorbance was measured using a Spark microplate reader after 1 h for HepG2 and 3 h for SH-SY5Y. Final cell viability was calculated relative to control wells (100% viability) and wells with 10 μM doxorubicin (0% viability). […]
# SH-SY5Y cells = assay: MTS cytotoxicity assay, SH-SY5Y; format: cell-based, human; conditions: 72 h
# Protocol: as §2, §3
# [1] = PAMPA passive permeability; format: in vitro ADME; conditions: for Papp at 5 h, 100 μM: PBS pH 7.4, 5 h, read-out: Pe ± SD
# Protocol: The PAMPA assay was utilized to evaluate the ability of SERAAK1 to passively diffuse through a lipid-infused artificial membrane. The results, gathered in Table 3, were expressed as permeability coefficient Pe, calculated according to the formulas described elsewhere.
# The pre-coated PAMPA Plate System Gentest from Corning (Tewksbury, MA, USA) was used in experiments using the instructions of the manufacturer. SERAAK1 and reference compounds were diluted in the PBS buffer (pH 7.4) to the final concentration of 100 μM and placed on the 96-well donor microplate. The exact quantity of molecules that successfully penetrated from donor to acceptor wells through the phospholipid membrane was estimated after 5 h of incubation using UPLC-MS spectrometry (Waters ACQUITY™ TQD system with the TQ Detector, Waters, Milford, CT, USA). The final permeability coefficient (Pe, cm/s) calculation was performed using the formula provided by the vendor of the PAMPA Plate System.
# mice [2] = assay: Spontaneous locomotor activity; format: in vivo; conditions: 30 and 60 mg/kg i.p., 60 min before the test, one-way ANOVA
# Protocol: Spontaneous locomotor activity is a meaningful parameter helping to understand the physical and mental status of laboratory animals, providing insights into general activity levels, arousal and potential sedative or stimulant effects of administered substances. We measured the distance traveled by the mice during the 20 min observation period.
# (§4) The investigated compound (SERAAK1) in all tests was administered intraperitoneally (i.p.), spread in a drop of Tween 80, diluted by an aqueous solution of 0.5% methylcellulose (tylose) and injected 60 min before the tests in a volume of 10 mL/kg. Initial doses of the compound were selected based on available literature and our earlier studies. Control groups received tylose injections of the same volume and via the same route of administration.
# (§5) All experiments were conducted on a 6-week-old naïve male Swiss mice weighing 24–30 g in the Experimental Medicine Center, Medical University of Lublin, Poland. […]
# (§6) The automatic device—actimeter Opto-Varimex-4 Auto-Track (Columbus Instruments, Columbus, OH, USA)—was used to measure the locomotor activity of experimental animals. The mice were individually placed in cages for 25 min: the first 5 min for acclimatization and then the next 20 min for observation while the distance (in centimeters) traveled during this time was measured. […]
# mice [3] = assay: Chimney test (motor coordination); format: in vivo; conditions: 30 mg/kg and 60 mg/kg i.p., 60 min after administration
# Protocol: (§7) This conclusion was supported by results from two widely used behavioral tests: the chimney test (Figure 10) and the rotarod test (Figure 11), conducted 60 min after the substance administration. In the chimney test, we measured the time it took the mice to exit the chimney, and in the second test, the time the animals stayed on the rod rotating at a constant speed of 18 rpm.
# as §4
# (§8) All experiments were conducted on a 6-week-old naïve male Swiss mice weighing 24–30 g in the Experimental Medicine Center, Medical University of Lublin, Poland. The animals were housed (four/five per cage) under standard laboratory conditions (room temperature of 22 ± 1 °C and a relative humidity of 50–60% during a 12/12 h light-dark cycle, lights on at 8:00). […]
# (§9) The effects of SERAAK1 were also measured in the rotarod and chimney tests. In the first test, the ability of mice to balance on a rotating rod (18 rpm, constantly) was assessed for 1 min. […]
# mice [4] = assay: Rotarod test (motor coordination); format: in vivo; conditions: 30 mg/kg and 60 mg/kg i.p., 60 min after administration
# Protocol: as §7, §4, §8, §9
# mice [5] = assay: Elevated plus maze test (EPM); format: in vivo; conditions: 30 mg/kg i.p.
# Protocol: The effect of SERAAK1 on anxiety-like behavior in mice was assessed using the elevated plus maze test (EPM). In this test we measured three parameters: time spent in the open arms of the maze, the number of entries into the open arms—expressed as a percentage of the time spent/entries in both types of maze arms and the total number of entries into the open and closed arms of the maze, which is an additional measure of the animals’ locomotor activity. The anxiolytic activity of mice after SERAAK1 administration was expressed as the percentage of time spent in the open arms of the maze and the number of entries into these arms. Statistical analysis with a t-test indicated a significant influence of acute administration of SERAAK1 (30 mg/kg) on anxiety responses.
# as §4
# All experiments were conducted on a 6-week-old naïve male Swiss mice weighing 24–30 g in the Experimental Medicine Center, Medical University of Lublin, Poland. The animals were housed (four/five per cage) under standard laboratory conditions (room temperature of 22 ± 1 °C and a relative humidity of 50–60% during a 12/12 h light-dark cycle, lights on at 8:00). The animals had free access to laboratory food—pellet diet (LSM, Agropol Motycz, Marynin, Poland) and tap water—except for the short time when they were removed from the cages for testing. […]
# Anxiety behaviors were measured using the EPM test according to the Lister method. […] The time spent in the EPM open arms, the number of entries into the open arms, and the total number of entries into both types of arms were measured.
# mice [6] = assay: Forced swim test (FST); format: in vivo; conditions: 30 mg/kg i.p., 60 min before the test, vs control, p < 0.01
# Protocol: The forced swim test (FST) is commonly used in rodent laboratory models to assess the efficacy of a potential antidepressant drug in alleviating or preventing depressive-like states. In the FST, we estimated the immobility time of animals, illustrating it […]. In this study, a t-test was used to assess the statistically significant effect of acute administration of SERAAK1 (30 mg/kg) on mice behavior in the FST.
# as §4, §5
# The study was carried out using the test proposed by R. Porsolt. […] The immobility time, considered as the state in which the mouse performs only those movements necessary to keep its head above the water, is measured between 2 and 6 min.
# mice [7] = assay: Amphetamine-induced hyperactivity; format: in vivo
# Protocol: In this test, we measured the distance traveled by the mice during the 20 min observation period. […] Pretreatment concerns the administration of amphetamine, and treatment concerns the tested compound.
# as §4, §8, §6
# 5-HT2A receptor [8] = target: 5-HT2A receptor; set-up: method as in PMID 38619283; conditions: radioligand binding; cited from earlier work
# 5-HT1A receptor = target: 5-HT1A receptor; set-up: method as in PMID 38619283; conditions: radioligand binding; cited from earlier work
# D2 receptor = target: D2 receptor; set-up: method as in PMID 38619283; conditions: radioligand binding; cited from earlier work
# 5-HT2A receptor [9] = target: 5-HT2A receptor; set-up: method as in PMID 38619283; conditions: functional studies; read-out: Kb, antagonist of the 5-HT2A receptor; cited from earlier work
# [10] = 30 µM (highest concentration tested)
# [11] = 60 min before the test, vs control, p < 0.001
# Chain of CYP2D6 (P10635 whole entry, canonical isoform): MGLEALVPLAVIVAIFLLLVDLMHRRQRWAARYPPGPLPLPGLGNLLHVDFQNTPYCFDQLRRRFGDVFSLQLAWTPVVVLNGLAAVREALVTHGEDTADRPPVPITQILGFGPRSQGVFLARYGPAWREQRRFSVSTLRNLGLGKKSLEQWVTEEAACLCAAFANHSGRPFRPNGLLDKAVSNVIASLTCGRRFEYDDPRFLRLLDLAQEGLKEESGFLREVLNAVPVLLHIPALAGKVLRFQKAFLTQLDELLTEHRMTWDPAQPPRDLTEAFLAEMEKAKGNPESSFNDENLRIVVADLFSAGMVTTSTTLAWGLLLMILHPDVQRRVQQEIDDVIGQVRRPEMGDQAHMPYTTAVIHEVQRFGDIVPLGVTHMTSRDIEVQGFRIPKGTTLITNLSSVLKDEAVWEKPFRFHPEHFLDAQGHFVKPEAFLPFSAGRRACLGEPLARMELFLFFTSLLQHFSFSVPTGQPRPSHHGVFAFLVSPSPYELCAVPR
# T1 sequence (P08684 whole entry): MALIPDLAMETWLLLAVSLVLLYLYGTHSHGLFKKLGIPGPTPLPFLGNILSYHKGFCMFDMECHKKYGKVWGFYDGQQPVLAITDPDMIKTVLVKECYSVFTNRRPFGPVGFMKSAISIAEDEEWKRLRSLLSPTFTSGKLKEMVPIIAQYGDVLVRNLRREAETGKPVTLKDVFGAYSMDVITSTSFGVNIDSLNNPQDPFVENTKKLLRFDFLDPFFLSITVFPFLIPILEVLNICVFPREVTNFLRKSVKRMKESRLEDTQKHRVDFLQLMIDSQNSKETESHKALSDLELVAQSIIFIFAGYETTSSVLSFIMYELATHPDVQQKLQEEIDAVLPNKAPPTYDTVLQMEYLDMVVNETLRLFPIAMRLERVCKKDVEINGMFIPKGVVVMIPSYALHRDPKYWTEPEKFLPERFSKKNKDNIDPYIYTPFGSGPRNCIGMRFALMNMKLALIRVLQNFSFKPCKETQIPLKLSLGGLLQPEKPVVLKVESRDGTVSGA
structure (smiles),measurement,setting,value
"C=C[C@H]1C[N@@]2CC[C@H]1C[C@@H]2[C@@H](O)c1ccnc2ccc(OC)cc12 [Quinidine, reference compound]",inhibition at 10 µM,CYP2D6; CYP2D6 P450 Glo kit (Promega),100 ± 1%
"OC(COC(c1ccccc1)c1ccccc1)CN1CCN(C(c2ccccc2)c2ccccc2)CC1 (stereo not shown) [SERAAK1, 1-(benzhydryloxy)-3-(4-benzhydrylpiperazin-1-yl)propan-2-ol]","CYP3A4 induction, dose-response","CYP3A4; concentrations > 100 nM, up to 10 µM",induce CYP3A4 in a dose-dependent manner
same,inhibition at 10 µM,"CYP3A4; human, CYP3A4 P450 Glo kit (Promega), 10 µM, a negative value indicates a stimulating effect, read-out: CYP3A4 Activity Inhibition, Evaluated in the Concentration of 10 µM [% of Inhibition ± SEM]",-352 ± 9%
same,CYP2D6 inhibition concentration range (IC50),CYP2D6,submicromolar
same,inhibition at 10 µM,CYP2D6,95 ± 1%
same,Toxic influence on HepG2 cells at lower concentrations,"HepG2 cells; 0.3 µM, 3 µM",no toxic influence
same,"% inhibition of cell proliferation (cytotoxic effect), HepG2",HepG2 cells; [10],84 ± 3%
same,Toxic influence on SH-SY5Y cells at lower concentrations,"SH-SY5Y cells; 0.3 µM, 3 µM",no toxic influence
same,"% inhibition of cell proliferation, SH-SY5Y",SH-SY5Y cells; [10],50 ± 5%
same,Passive permeation through the lipid bilayer,[1],did not permeate passively
same,"Papp at 5 h, 100 μM",[1],< 0.01 ×10⁻⁶ cm/s
same,Spontaneous locomotor activity (distance traveled in 20 min),mice [2],did not show any significant changes
same,"Motor coordination, chimney test (time to exit the chimney)",mice [3],did not reveal any statistically significant effects
same,"Motor coordination, rotarod test (time on the rod, 18 rpm)",mice [4],did not reveal any statistically significant effects
same,"Total arm entries, overall mobility (EPM)",mice [5],did not change the overall mobility
same,Increase in percentage of open arm entries (EPM),mice [5]; [11],19.34%
same,Increase in percentage of time spent on the open arms (EPM),mice [5]; [11],12.9%
same,Reduction in immobility time (FST),mice [6],29.2%
same,Decrease of amphetamine-induced hyperactivity (distance traveled in 20 min),"mice [7]; 30 mg/kg with amphetamine (5 mg/kg), vs amphetamine-treated group, p < 0.05",22.15%
same,Ki,5-HT2A receptor [8],826 ± 51 nM
same,Ki,5-HT1A receptor,1420 ± 108 nM
same,Ki,D2 receptor,1290 ± 323 nM
same,Kb,5-HT2A receptor [9],462 nM
"CCN1CCCC1CNC(=O)c1cc(S(N)(=O)=O)ccc1OC (stereo not shown) [Sulpiride, reference compound]","Papp at 5 h, 100 μM",[1],0.011 ± 0.002 ×10⁻⁶ cm/s
"CC(N)Cc1ccccc1 (stereo not shown) [amphetamine, reference compound]",Locomotor activity (distance traveled) vs saline-treated group,"mice [7]; amphetamine alone, p < 0.001",increased the locomotor activity
